Laboratory results as given in patent US5321035A, “Piperidine derivatives and process for preparation thereof” (Shionogi & Co., Ltd., priority 1992, dated 1994).

Experiments:
[1] = system: 7-alkoxycumarin-O-dialkylase; test: Enzyme Induction Test (liver microsomal 7-alkoxycumarin-O-dialkylase activities after repeated dosing); assay type: in vivo, mouse (male, DS)
Method: Male mice (DS, 5-6 week-old) received intraperitoneally 100 mg/kg of the compound (a) of the present invention or the compound (c) (1-[3-}4-(3,4,-dichlorophenyl)-1,2,5,6-tetrahydropiperidin-1-yl}propylcarbamoyl]-2-oxopyrrolidine) suspended in 5% gum arabic once a day for three days. After 24 hrs from the final administration, the liver was removed from the animal, and liver microsome was prepared by means of centrifugal fractionation. Additional liver microsomes were prepared in the same manner as above by intraperitoneally administering a typical enzyme inducer, phenobarbital (dissolved in saline) or β-naphthoflavone (suspended in sesame oil), to mice. Enzymatic activities of the above liver microsomes on drug metabolism were evaluated by determining their 7-alkoxycumarin-O-dialkylase activities.

[2] = system: [3H]5-HT uptake by synaptosomes; test: {3H} Serotonin (5-HT) Uptake Inhibition Test in brain synaptosomes; assay type: biochemical, rat (male Slc: Wistar strain); details: for IC50: 5 nM [3H]5-HT, 5 min at 37° C, rat brain synaptosomes
From the text: (1) Evaluation of Effects on Neurotransmittal Systems {^3 H} Serotonin (5-HT) Uptake Inhibition Test
Compound (a): a compound of the present invention
Compound (b): 1-[3-{4-(3,4-dichlorophenyl)-piperidin-1-yl}propylcarbamoyl]-2-oxopyrrolidin (Japanese Patent Publication (KOKAI) No.131155/1989).
Male Slc: Wistar strain rats (12-week-old, Japan SLC).
Rats were killed by decapitation and a whole brain except for cerebellum is isolated immediately. The isolated tissue was homogenized in 20 volume of ice-cold 0.32 M sucrose solution by Potter-type homogenizer and centrifuged at 1,000× g for 10 min. The supernatant is centrifuged at 40,000× g for 20 min. The resultant pellet is resuspended in 20 volume of Krebs-Henseleit buffer containing 1 mM ascorbate, 0.17 mM EDTA and 0.08 mM pargyline by Polytron and centrifuged at 40,000× g for 10 min, which procedure was repeated two more times. The finally obtained pellet was resuspended in 20 volume of ice-cold Krebs-Henseleit buffer using Polytron. The resultant suspension was diluted to 1/10 with the same buffer to give a synaptosome sample.
A mixture of 5 nM [^3 H]5-HT (10 μl), synaptosome sample (480 μl ) and a solution (10 μl ) containing a test compound at a predetermined concentration was incubated for 5 min at 37° C. The reaction was stopped by diluting the mixture with ice-cold Krebs-Henseleit buffer (2.5 ml) and filtering with suction on Whatman GF/C paper. The filter paper was washed three times with ice-cold Krebs-Henseleit buffer (2.5 ml each) and allowed to stand for about 18 hr in Cleasol-1 solution (5 ml). The radioactivity was then measured by means of a liquid scintillation counter. A control experiment was carried out in the same manner as the above using 5 nM [^3 H]5-HT (10 μl ), synaptosome sample (480 μl ) and a solvent (10 μl ) used for dissolving a test compound to obtain blank values of radioactivity. […]

[3] = system: hippocampus CAI pyramidal cells; test: Inhibitory effect against delayed necrosis of hippocampus pyramidal cells after cerebral ischemia (bilateral common carotid artery ligation); assay type: in vivo, Mongolian gerbil; details: for injury (%) in pyramidal cell layer: 30 min before 5 min occlusion, 4th day; for inhibition (%) of injury: vs control
Method: Inhibitory effect against the delayed necrosis of hippocampus CAI pyramidal cells was determined.
Compound (a) and compound (b) were again used in this experiment. Three to eight male mice (Mongolian gerbil, 11 to 12-week-old, Seiwa Jikken-dobutsuKenkyusyo) were used for one group.
Each animal was intraperitoneally administered a solution of the test compound (a) or (b) dissolved in distilled water, or only distilled water (for control) at 0.2 ml/100 g weight of the animal. Thirty minutes later, under the halothane anesthesia, bilateral common carotid artery was separated from surrounding tissues and ligated for a period of 5 min with Sugita's artery Klemme. Anesthesia was stopped at the time of artery occlusion. On the 4th day after the operation, each animal was anesthetized with pentobarbital Na (45 mg/kg), and brain was perfused with 4% paraformaldehyde solution and removed. From the brain was prepared a piece of cerebral preparation containing hippocampus. It was placed in Carnoy's fixative overnight for fixation and embedded in paraffin, from which sliced coronal preparations of 10 μm thick were prepared. Each cerebral preparation was stained with hematoxylin-eosin and the rate of injury (%) in pyramidal cell layer extending from paramedian to CA4 was observed using two-dimensional image analyzer (Cosmozon IS, Nicon).

[4] = mouse, in vivo, ip, 100 mg/kg, 1440 min
[5] = i.p., compounds (a), (c): 100 mg/kg once a day for three days, control = 1.00
[6] = i.p., compounds (a), (c): 100 mg/kg once a day for three days, liver microsomes
[7] = three days, compared with the control

Row | Molecule | deethylation activity (7-alkoxycumarin-O-dialkylase) ([1]; mouse, in vivo, ip, 100 mg/kg) | demethylation activity (7-alkoxycumarin-O-dialkylase) ([1]; mouse, in vivo, ip, 100 mg/kg) | depropylation activity (7-alkoxycumarin-O-dialkylase) ([1]; mouse, in vivo, ip, 100 mg/kg) | deethylation activity, ratio to control (in parentheses) [1, 4] | demethylation activity, ratio to control (in parentheses) [1, 4] | depropylation activity, ratio to control (in parentheses) [1, 4] | IC50 [2] [µM] | injury (%) in pyramidal cell layer ([3]; 12.5 mg/kg i.p.) [%] | inhibition (%) of injury ([3]; 12.5 mg/kg i.p.) | injury (%) in pyramidal cell layer ([3]; 25.0 mg/kg i.p.) [%] | inhibition (%) of injury ([3]; 25.0 mg/kg i.p.) | injury (%) in pyramidal cell layer ([3]; 50.0 mg/kg i.p.) [%] | inhibition (%) of injury ([3]; 50.0 mg/kg i.p.) | deethylation activity, ratio to control (in parentheses) [1, 5] | demethylation activity, ratio to control (in parentheses) [1, 5] | depropylation activity, ratio to control (in parentheses) [1, 5] | deethylation activity (7-alkoxycumarin-O-dialkylase) [1, 6] | demethylation activity (7-alkoxycumarin-O-dialkylase) [1, 6] | depropylation activity (7-alkoxycumarin-O-dialkylase) [1, 6] | other results
1 | O=c1cc(-c2ccccc2)oc2ccc3ccccc3c12 [β-naphtoflavone, β-naphthoflavone] | 5.26 ± 0.28 nmol/min/mg of microsome protein | 1.94 ± 0.08 nmol/min/mg of microsome protein | 2.97 ± 0.20 nmol/min/mg of microsome protein | 5.06 | 2.04 | 6.19 |  |  |  |  |  |  |  |  |  |  |  |  |  | 
2 | O=C1CCCN1C(=O)NCCCN1CCC(c2ccc(Cl)c(Cl)c2)CC1 [Compound (a), 1-[3-{4-(3,4-Dichlorophenyl)piperidin-1-yl}-propylcarbamoyl]-2-oxopyrrolidine] | 2.59 ± 0.27 nmol/min/mg of microsome protein | 2.79 ± 0.33 nmol/min/mg of microsome protein | 1.08 ± 0.12 nmol/min/mg of microsome protein | 0.98 | 1.08 | 0.89 | 0.13 | 45.9 ± 2.1 | +8.0% | 33.6 ± 5.3 | +32.7% | 0 | +100% |  |  |  |  |  |  | serotonin uptake inhibitory activity (in words) ([2]; compared to compound (b)): much more potent serotonin uptake inhibitory activity; inhibition of delayed necrosis of hippocampus CAI pyramidal cells (in words) ([3]; 50 mg/kg i.p.): completely inhibited; inhibition of delayed necrosis of hippocampus CAI pyramidal cells (in words) ([3]; 12.5 and 25 mg/kg i.p.): significantly inhibited; enzyme induction (in words) ([1]; mouse, in vivo): no enzyme induction was observed
3 | 1-[3-{4-(3,4-dichlorophenyl)-piperidin-1-yl}propylcarbamoyl]-2-oxopyrrolidin [Compound (b)] |  |  |  |  |  |  | 23 | 44.0 ± 3.2 | +2.8% | 28.1 ± 8.3 | +38.0% | 30.7 ± 3.9 | +32.1% |  |  |  |  |  |  | 
4 | CCC1(c2ccccc2)C(=O)NC(=O)NC1=O [phenobalbital, phenobarbital] |  |  |  |  |  |  |  |  |  |  |  |  |  | 2.53 | 2.29 | 2.20 | 2.63 ± 0.18 nmol/min/mg of microsome protein | 2.18 ± 0.13 nmol/min/mg of microsome protein | 1.06 ± 0.06 nmol/min/mg of microsome protein | 
5 | O=C1CCCN1C(=O)NCCCN1CC=C(c2ccc(Cl)c(Cl)c2)CC1 [Compound (c)] |  |  |  |  |  |  |  |  |  |  |  |  |  | 1.99 | 1.61 | 2.20 | 2.29 ± 0.18 nmol/min/mg of microsome protein | 1.83 ± 0.19 nmol/min/mg of microsome protein | 0.99 ± 0.55 nmol/min/mg of microsome protein | enzyme induction (in words) ([1]; mouse liver, three days): carcinogenic enzyme induction of β-naphthoflavone type (3-methylcholanthrene type); increase in deethylation and depropylation activities [1, 7]: 1.99-2.20 times; increase in demethylation activity [1, 7]: 1.61 times
